Measured values taken from patent publication EP4635945A1, “CRYSTAL FORM OF PROXIMOD, PREPARATION METHOD THEREFOR, AND USE THEREOF” (Jiankuan (Suzhou) Biotechnology Co., Ltd, priority 2022, dated 2024).

Test: Crystal form stability on vacuum drying (XRPD)
Format: physicochemical
Description: After the above sample was dried under vacuum at 50 °C for 6 hours, the XRPD detection was performed. […] The TGA curves of the sample of the crystal form D of proximod which was dried and the sample of the crystal form D of proximod which was dried and placed at room temperature for two days are shown in FIGS. 16 and 17, respectively. […] The theoretical weight loss of the proximod […] is 6.1%. […] Based on the above experimental results, it is inferred that the crystal form D is an unstable sesquihydrate. It is inferred that the crystal form D is an unstable sesquihydrate and is prone to crystal transformation during drying and storage, making it difficult to prepare a pure phase.
The obtained wet sample was subjected to the XRPD detection. The obtained solid was the crystal form F of the present application, and the X-ray powder diffraction (XRPD) pattern of the crystal form F is shown in FIG. 21. After the wet sample was dried under vacuum at 50 °C for 2 hours, the XRPD detection was performed.

SMILES: CCCc1nc(-c2ccc(-c3ccc(CCC(N)(CO)CO)cc3)cc2)co1.Cl [Crystal form D, 2-amino-2-{2-(4'-(2-propyloxazol-4-yl)-[1,1'-biphenyl]-4-yl)ethyl}-1,3-propanediol hydrochloride]
- Crystal form after drying (XRPD) (dried under vacuum at 50 °C for 6 hours): partially crystal transformed into the crystal form A

SMILES: CCCc1nc(-c2ccc(-c3ccc(CCC(N)(CO)CO)cc3)cc2)co1.Cl [Crystal form F, 2-amino-2-{2-(4'-(2-propyloxazol-4-yl)-[1,1'-biphenyl]-4-yl)ethyl}-1,3-propanediol hydrochloride]
- Crystal form after drying (XRPD) (wet sample dried under vacuum at 50 °C for 2 hours): partially crystal transformed into the crystal form A
